In patent publication US9802973B2, “Crystalline forms of ferric maltol” (SHIELD TX (UK) LTD., priority 2014, dated 2017):

Key:
[1] = Competitive slurries of polymorphs (XRPD of product); type: physicochemical
Protocol: Form IV (10 mg) was placed in water (1 ml) with 10 mg of Form I and Form II and stirred overnight at ambient temperature. A second slurry was set up to also include a further polymorph. Mixtures were filtered under suction and dried in a vacuum oven (45° C.).
The same experimental procedure was applied to a slurry involving Forms I, II, III and IV. The initial test was performed in water and a second was carried out in ethyl acetate. […] This work supports previous conclusions that Form II is the dominant form.

[2] = Solubility in pure water of the polymorphs; settings: 23° C.
Protocol: The solubility in pure water of samples of the different polymorphs was assessed at 23° C.

- Form obtained from competitive slurry (XRPD) ([1]; Form IV with Form I and Form II, water, stirred overnight at ambient temperature): generated
- Relative stability of forms concluded from competitive slurries ([1]; conclusion from competitive slurries): dominant form
- Form obtained from competitive slurry (XRPD) ([1]; slurry of Forms I, II, III and IV, in water and in ethyl acetate): isolated
- Solubility [2]: 5900 µg/mL
Compound: Cc1occc(=O)c1[O-].Cc1occc(=O)c1[O-].Cc1occc(=O)c1[O-].[Fe+3] [Form II, ferric maltol]
